Publication PMC7281973, “Biological and Computational Studies for Dual Cholinesterases Inhibitory Effect of Zerumbone” (Nutrients, 2020)
Like-named read-outs stand apart in the source and are kept apart here.

Tests used:
[1] = test system: Sprague–Dawley rats; conditions: 1 and 10 mg/kg; cited from earlier work
[2] = test system: transgenic APP/PS1 mice; conditions: 25 mg/kg; cited from earlier work
[3] = target: T1, BACE1 (Homo sapiens, UniProt P56817); assay: BACE1 FRET assay; type: biochemical; conditions: mean ± SD, read-out: Inhibitory activity (%) against BACE1
T1 construct: purchased Thermo Fisher Scientific, Inc; host or cells: baculovirus expression system
Procedure: To evaluate BACE1 inhibitory activity, a BACE1 FRET assay kit with a recombinant baculovirus-expressed BACE1 and a Rh-[…]-Quencher substrate was used. Briefly, a mixture of BACE1 (1.0 U/mL), the substrate, and tested sample at a different concentration, was incubated for 60 min at 25 °C in well plates. The increase in fluorescence intensity was measured by a fluorescence microplate reader at excitation and emission wavelengths of 545/590 nm (FLX800, Winooski, VT, USA). The inhibitory ratio (%) was calculated using the formula: Inhibition (%) = [1 − (S − S0)/(C − C0)] × 100, where C is the absorbance of control after 60 min of incubation, C0 is the absorbance of control at time 0, S was the absorbance of samples after 60 min of incubation, and S0 was the absorbance of the samples at time 0.

[4] = target: T2, Elastase (Sus scrofa, UniProt P00772); assay: Enzyme selectivity assay, elastase; type: biochemical; conditions: mean ± SD, read-out: Inhibitory activity (%) against Elastase
T2 construct: purchased Sigma-Aldrich
Procedure: (§1) To determine enzyme selectivity, trypsin, chymotrypsin, and elastase were analyzed using […], and N-succinyl-Ala-Ala-Ala-pNA as substrates, respectively. The reaction mixture was incubated for 20 min and the absorbance was measured at 410 nm.

[5] = test system: Trypsin; assay: Enzyme selectivity assay, trypsin; type: biochemical; conditions: mean ± SD
Procedure: as §1

[6] = target: AChE (Electrophorus electricus, UniProt O42275); conditions: Dixon and Lineweaver-Burk plots
Procedure: (§2) AChE or BChE (0.8 U/mL) was added to a mixture which contained 0.1 M sodium phosphate buffer, 5 mM DTNB, and a tested sample, and then incubated at 37 °C for 15 min.
(§3) The cholinesterases inhibition kinetics of zerumbone were analyzed using Dixon and Lineweaver-Burk plots. The dissociation constant (Ki) was determined by interpretation of the Dixon plot, and Vmax and Km were calculated by Lineweaver–Burk plots, using the initial velocities obtained over a substrate concentration range [11].

[7] = target: T3, BChE (Equus caballus, UniProt P81908); assay: Anti-cholinesterase activity assay (modified Ellman method), BChE; type: biochemical
Procedure: as §2, §3

[8] = target: T4, Chymotrypsin (Bos taurus, UniProt P00766); assay: Enzyme selectivity assay, chymotrypsin; type: biochemical; conditions: mean ± SD, read-out: Inhibitory activity (%) against Chymotrypsin
T4 construct: purchased Sigma-Aldrich
Procedure: as §1

[9] = test system: mice; conditions: cited from earlier work
[10] = test system: oxidative stress related inflammation and cancer cell proliferation; conditions: cited from earlier work
[11] = target: T3, BChE; conditions: ref Xavier et al. 2015; cited from earlier work

T3 sequence (P81908 whole entry): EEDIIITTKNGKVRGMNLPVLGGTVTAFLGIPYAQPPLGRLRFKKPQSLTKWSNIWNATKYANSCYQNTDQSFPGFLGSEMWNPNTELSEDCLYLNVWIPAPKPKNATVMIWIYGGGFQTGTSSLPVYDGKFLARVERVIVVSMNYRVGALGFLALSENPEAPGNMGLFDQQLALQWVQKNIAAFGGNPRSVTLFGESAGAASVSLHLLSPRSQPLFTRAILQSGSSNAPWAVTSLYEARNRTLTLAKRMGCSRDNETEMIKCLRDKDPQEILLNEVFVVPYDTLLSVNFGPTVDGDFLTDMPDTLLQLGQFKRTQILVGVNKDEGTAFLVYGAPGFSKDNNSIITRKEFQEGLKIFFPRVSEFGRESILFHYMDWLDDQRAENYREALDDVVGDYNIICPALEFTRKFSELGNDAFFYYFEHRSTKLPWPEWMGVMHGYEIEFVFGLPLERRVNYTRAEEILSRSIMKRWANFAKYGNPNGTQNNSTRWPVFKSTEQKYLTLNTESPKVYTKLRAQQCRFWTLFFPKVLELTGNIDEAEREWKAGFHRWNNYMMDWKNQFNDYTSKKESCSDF
T1 sequence (P56817 46-501): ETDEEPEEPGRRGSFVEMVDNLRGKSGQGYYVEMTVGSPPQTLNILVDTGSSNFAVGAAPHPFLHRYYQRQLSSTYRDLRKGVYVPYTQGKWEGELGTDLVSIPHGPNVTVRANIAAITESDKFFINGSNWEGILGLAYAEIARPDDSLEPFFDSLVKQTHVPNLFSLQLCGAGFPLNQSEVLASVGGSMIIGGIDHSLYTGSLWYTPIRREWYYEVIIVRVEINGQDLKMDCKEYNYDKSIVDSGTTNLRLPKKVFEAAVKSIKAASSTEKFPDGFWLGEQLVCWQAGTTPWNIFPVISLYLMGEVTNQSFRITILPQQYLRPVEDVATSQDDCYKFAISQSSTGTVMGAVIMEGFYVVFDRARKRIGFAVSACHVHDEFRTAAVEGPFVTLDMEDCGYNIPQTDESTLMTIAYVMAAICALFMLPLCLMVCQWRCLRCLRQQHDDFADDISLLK
T2 sequence (P00772 27-266): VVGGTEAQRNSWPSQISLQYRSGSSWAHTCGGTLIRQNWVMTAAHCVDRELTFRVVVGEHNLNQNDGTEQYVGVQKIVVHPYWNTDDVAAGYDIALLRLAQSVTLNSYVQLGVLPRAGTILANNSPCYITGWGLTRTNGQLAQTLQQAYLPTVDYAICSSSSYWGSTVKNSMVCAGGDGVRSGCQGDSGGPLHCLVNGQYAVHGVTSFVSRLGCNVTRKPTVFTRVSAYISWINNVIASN
AChE, sequence (O42275 24-633): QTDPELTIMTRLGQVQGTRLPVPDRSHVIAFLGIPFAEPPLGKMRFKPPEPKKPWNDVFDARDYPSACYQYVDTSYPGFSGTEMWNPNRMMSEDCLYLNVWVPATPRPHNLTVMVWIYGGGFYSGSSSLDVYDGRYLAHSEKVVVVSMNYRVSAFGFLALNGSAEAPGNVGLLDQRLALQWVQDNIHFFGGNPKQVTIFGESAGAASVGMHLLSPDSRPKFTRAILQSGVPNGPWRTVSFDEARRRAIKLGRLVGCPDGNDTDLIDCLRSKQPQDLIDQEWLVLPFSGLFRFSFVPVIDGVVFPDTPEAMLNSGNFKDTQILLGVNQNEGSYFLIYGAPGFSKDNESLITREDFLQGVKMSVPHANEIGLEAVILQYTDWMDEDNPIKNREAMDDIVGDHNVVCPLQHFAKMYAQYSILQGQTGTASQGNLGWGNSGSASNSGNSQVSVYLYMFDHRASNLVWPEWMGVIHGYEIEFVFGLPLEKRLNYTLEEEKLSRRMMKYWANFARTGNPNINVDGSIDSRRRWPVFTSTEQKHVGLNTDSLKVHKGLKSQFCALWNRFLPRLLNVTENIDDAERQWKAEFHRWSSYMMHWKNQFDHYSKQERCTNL

In the case of `C/C1=C\CC(C)(C)/C=C/C(=O)/C(C)=C/CC1` [Zerumbone], the “Effect on cognitive impairments and memory deficits related to scopolamine” value [1] is given as “attenuated cognitive impairments and memory deficits”, the “Effect on behavioral impairments and Aβ deposition” value [2] is given as “alleviated behavioral impairments and Aβ deposition” and the inhibition at 50 µM ([3]; 50 µM) is given as 13.3 ± 1.2%. The inhibition at 100 µM ([3]; 100 µM) was 16.1 ± 1.36%, the inhibition at 50 µM ([4]; 50 µM) was 3.46 ± 1.85% and the inhibition at 100 µM ([4]; 100 µM) was 3.57 ± 0.94%. For the same molecule, the “Inhibitory activity (%) against Trypsin” value ([5]; 50 µM) was 5.00 ± 1.94%, the “Inhibitory activity (%) against Trypsin” value ([5]; 100 µM) was 3.75 ± 2.03% and the “AChE Inhibition Type” value [6] was “Non-competitive”. For the same molecule, the “BChE Inhibition Type” value ([7]; Dixon and Lineweaver-Burk plots) was “Competitive”, the “Fold more potent BChE suppression in comparison to galantamine” value ([7]; versus positive control galantamine) was “approximately 3 fold” and the inhibition at 50 µM ([8]; 50 µM) was 3.45 ± 0.3%. The inhibition at 100 µM ([8]; 100 µM) was 2.71 ± 0.45%, the “Genotoxicity, organ weight, clinical chemistry, hematology, histopathology” value ([9]; mouse, in vivo, ip) was “did not cause any genotoxicity” and the “Acute toxicity in vivo” value ([9]; previous in vivo studies) was “did not produce significant acute toxicity”.
In the case of `C/C1=C\CC/C(C)=C/CC(C)(C)/C=C/C1` [α-Humulene], the “Activity in oxidative stress related inflammation and cancer cell proliferation” value [10] is listed as “virtually inactive”.
In the case of `COc1ccc2c3c1O[C@H]1C[C@@H](O)C=C[C@@]31CCN(C)C2` [Galantamine], the “BChE Inhibition Type” value [11] is listed as “Competitive ^5”.
